Legend:
[1] = tested on: control sera (pooled serum of ten healthy LUMC hospital workers; commercial negative donor pooled serum from the Dutch bloodbank); format: binding, human; set-up: Binding of Control serum LUMC to linear peptides / Binding of Control serum Blood-bank to linear peptides / Binding of Control serum LUMC to looped peptides / Binding of Control Serum Blood-Bank to Looped peptides / Binding of Control serum LUMC to linear peptides of the protein M of SARS-CoV Urbani / Binding of Control serum Blood-bank to linear peptides of the protein M of SARS-CoV Urbani / Binding of Control serum LUMC to looped peptides of the protein M of SARS-CoV Urbani / Binding of Control Serum Blood-Bank to Looped peptides of the protein M of SARS-CoV Urbani: unit not given here
[2] = tested on: antibodies in sera from SARS patients (sera 1a, 1b, 2, 6, 37, 62, London, SARS-yellow, SARS-green); format: binding, human; set-up: Binding of serum 6 to linear peptides of protein X1 of SARS-CoV Urbani / Binding of serum 37 to linear peptides of protein X1 of SARS-CoV Urbani / Binding of serum 6 to looped/cyclic peptide (PEPSCAN-ELISA) / Binding of serum 37 to looped/cyclic peptide (PEPSCAN-ELISA) / Binding of serum 37 to looped/cyclic peptides of protein X1 of SARS-CoV Urbani / Binding of serum 6 to linear peptides of protein X2 / Binding of serum 37 to linear peptides of protein X2 / Binding of serum 37 to looped/cyclic peptides of protein X2 of SARS-CoV Urbani / Binding of serum 6 to linear peptides of protein M of SARS-CoV Urbani / Binding of serum 37 to linear peptides of protein M of SARS-CoV Urbani / Binding of serum 6 to looped/cyclic peptides of protein M of SARS-CoV Urbani / Binding of serum 37 to looped/cyclic peptides of protein M of SARS-CoV Urbani / Binding of serum 6 to linear peptides of protein X3 of SARS-CoV Urbani / Binding of serum 37 to linear peptides of protein X3 of SARS-CoV Urbani / Binding of serum 37 to looped/cyclic peptides of protein X3 of SARS-CoV Urbani / Binding of serum 6 to linear peptides of protein X4 of SARS-CoV Urbani / Binding of serum 37 to linear peptides of protein X4 of SARS-CoV Urbani / Binding of serum 37 to looped/cyclic peptides of protein X4 of SARS-CoV Urbani / Binding of serum 6 to linear peptides of protein X5 of SARS-CoV Urbani / Binding of serum 37 to linear peptides of protein X5 of SARS-CoV Urbani / Binding of serum 37 to looped/cyclic peptides of protein X5 of SARS-CoV Urbani / Binding of serum 6 to linear peptides of protein N of SARS-CoV Urbani / Binding of serum 37 to linear peptides of protein N of SARS-CoV Urbani / Binding of serum 6 to linear peptide (PEPSCAN-ELISA) / Binding of serum 1a to looped/cyclic peptides of protein N of SARS-CoV Urbani / Binding of serum 1b to looped/cyclic peptides of protein N of SARS-CoV Urbani / Binding of serum 2 to looped/cyclic peptides of protein N of SARS-CoV Urbani / Binding of serum 6 to looped/cyclic peptides of protein N of SARS-CoV Urbani / Binding of serum 37 to looped/cyclic peptides of protein N of SARS-CoV Urbani / Binding of serum 62 to looped/cyclic peptides of protein N of SARS-CoV Urbani / Binding of serum London to looped/cyclic peptides of protein N of SARS-CoV Urbani / Binding of serum SARS-green to looped/cyclic peptides of protein N of SARS-CoV Urbani: unit not given here
[3] = tested on: rabbit serum obtained by immunizing a rabbit with the SARS-CoV strain Frankfurt 1; format: binding; set-up: Binding of a rabbit serum to linear peptides / Binding of a rabbit serum to looped peptides / Rabbit serum linear peptides / Rabbit serum looped peptides / Binding of a rabbit serum to linear peptides of protein N of SARS-CoV Urbani (Rabbit serum linear peptides) / Binding of a rabbit serum to looped/cyclic peptides of protein N of SARS-CoV Urbani (Rabbit serum looped peptides): unit not given here

For YSNRNRFLYIIKLVF, the “Binding of Control Serum Blood-Bank to Looped peptides of the protein M of SARS-CoV Urbani” value [1] was 0.6, the “Binding of Control serum Blood-bank to linear peptides of the protein M of SARS-CoV Urbani” value [1] was 0.7 and the “Binding of Control serum LUMC to linear peptides of the protein M of SARS-CoV Urbani” value [1] was 0.4. For the same sequence, the “Binding of Control serum LUMC to looped peptides of the protein M of SARS-CoV Urbani” value [1] was 0.9, the “Binding of serum 1a to linear peptides of protein M of SARS-CoV Urbani” value [2] was 0.7 and the “Binding of serum 1b to linear peptides of protein M of SARS-CoV Urbani” value [2] was 0.5. For the same sequence, the “Binding of serum 2 to linear peptides of protein M of SARS-CoV Urbani” value [2] was 0.6, the “Binding of serum 6 to linear peptides of protein M of SARS-CoV Urbani” value [2] was 0.3 and the “Binding of serum 37 to linear peptides of protein M of SARS-CoV Urbani” value [2] was 0.7. The “Binding of serum 62 to linear peptides of protein M of SARS-CoV Urbani” value [2] was 0.7, the “Binding of serum London to linear peptides of protein M of SARS-CoV Urbani” value [2] was 0.3 and the “Binding of serum SARS-green to linear peptides of protein M of SARS-CoV Urbani” value [2] was 0.3. The “Binding of serum SARS-yellow to linear peptides of protein M of SARS-CoV Urbani” value [2] was 0.1, the “Recognition of the peptide by sera of SARS-CoV infected individuals, and form (linear, looped/cyclic) in which it is recognized” value [2] was “recognized in looped/cyclic form” and the “Rabbit serum linear peptides” value [3] was 0.4. The “Rabbit serum looped peptides” value [3] was 0.5.
For YSTAWLCALGKVLPF, the “Binding of Control Serum Blood-Bank to Looped peptides” value [1] was 0.4, the “Binding of Control serum Blood-bank to linear peptides” value [1] was 0.8 and the “Binding of Control serum LUMC to linear peptides” value [1] was 0.5. The “Binding of Control serum LUMC to looped peptides” value [1] was 0.5, the “Binding of serum 1a to linear peptides of protein X5 of SARS-CoV Urbani” value [2] was 0.7 and the “Binding of serum 1a to looped/cyclic peptides of protein X5 of SARS-CoV Urbani” value [2] was 0.5. The “Binding of serum 1b to linear peptides of protein X5 of SARS-CoV Urbani” value [2] was 0.6, the “Binding of serum 1b to looped/cyclic peptides of protein X5 of SARS-CoV Urbani” value [2] was 0.3 and the “Binding of serum 2 to linear peptides of protein X5 of SARS-CoV Urbani” value [2] was 0.7. The “Binding of serum 2 to looped/cyclic peptides of protein X5 of SARS-CoV Urbani” value [2] was 0.5, the “Binding of serum 6 to linear peptides of protein X5 of SARS-CoV Urbani” value [2] was 0.6 and the “Binding of serum 6 to looped/cyclic peptides of protein X5 of SARS-CoV Urbani” value [2] was 0.6. For the same sequence, the “Binding of serum 37 to linear peptides of protein X5 of SARS-CoV Urbani” value [2] was 0.6, the “Binding of serum 37 to looped/cyclic peptides of protein X5 of SARS-CoV Urbani” value [2] was 0.5 and the “Binding of serum 62 to linear peptides of protein X5 of SARS-CoV Urbani” value [2] was 0.8. For the same sequence, the “Binding of serum 62 to looped/cyclic peptides of protein X5 of SARS-CoV Urbani” value [2] was 0.8, the “Binding of serum London to linear peptides of protein X5 of SARS-CoV Urbani” value [2] was 0.8 and the “Binding of serum London to looped/cyclic peptides of protein X5 of SARS-CoV Urbani” value [2] was 0.4. For the same sequence, the “Binding of serum SARS-green to linear peptides of protein X5 of SARS-CoV Urbani” value [2] was 0.5, the “Binding of serum SARS-green to looped/cyclic peptides of protein X5 of SARS-CoV Urbani” value [2] was 0.2 and the “Binding of serum SARS-yellow to linear peptides of protein X5 of SARS-CoV Urbani” value [2] was 0.4. The “Binding of serum SARS-yellow to looped/cyclic peptides of protein X5 of SARS-CoV Urbani” value [2] was 0.9, the “Rabbit serum linear peptides” value [3] was 0.7 and the “Rabbit serum looped peptides” value [3] was 1.0.

Source: patent US20070128217A1 (priority 2003, published 2007)
